One block for each compound: values may come before it.
How the values were obtained:
[1] = Degradation Example 6: oxidation with hydrogen peroxide, monitored by HPLC; type: physicochemical; details: after 1 hour at RT
Procedure: Thus, 0.1 μmol of the cyclic boranophosphate 2-chloroadenosine-3′,5′-cyclic boranophosphate, Sp-isomer (Sp-2-Cl-cAMPB, example 71) and 0.1 μmol of the corresponding phosphorothioate 2-chloroadenosine-3′,5′-cyclic phosphorothioate, Rp-isomer (Rp-2-Cl-cAMPS, Biolog) as a control, were each dissolved in 100 μl of water, combined and treated with 10 μl of 30% aqueous hydrogen peroxide (Merck), and another 10 μl after one hour. During 2.5 hours, oxidative degradation was monitored by HPLC (RP-18, 15 Vol.-% acetonitrile, 20 mM triethylammonium formate buffer, pH 6.5, 1.5 ml/min., UV 262 nm). Corresponding peak areas were recorded, integrated and compared (Tab. 5).

[2] = test system: PDE type I from bovine brain; assay: Resistance towards phosphodiesterase: incubation with PDE type I from bovine brain, HPLC; details: PDE type I from bovine brain, 37° C., up to 8 days
Procedure: Activity of the enzyme was checked by hydrolysis of cyclic AMP. Stability was monitored by HPLC (RP-18, 11 Vol.-% propanol-2, 20 mM TEAF buffer, pH 6.8, 1 ml/min., UV 264 nm).

PDE 1 from bovine heart = assay: Resistance towards phosphodiesterase: incubation with PDE 1 from bovine heart, HPLC; details: PDE 1 from bovine heart, up to 8 days of incubation
Procedure: (§1) For this purpose 0.1 μmol of Rp-8-bromoadenosine-3′,5′-cyclic boranophosphate (example 1) and Sp-8-bromoadenosine-3′,5′-cyclic boranophosphate […] dissolved in TRIS buffer pH 7.2 containing calcium chloride and calmodulin and incubated with PDE type I from bovine brain (Sigma-Aldrich) at 37° C. Activity of the enzyme was checked by hydrolysis of cyclic AMP. Stability was monitored by HPLC (RP-18, 11 Vol.-% propanol-2, 20 mM TEAF buffer, pH 6.8, 1 ml/min., UV 264 nm). […] This strategy of testing PDE performance was applied accordingly in degradation examples 10 and 11.
(§2) Thus, Rp-8-Br-cAMPB (example 1) and Sp-8-Br-cAMPS (Biolog, Bremen/Germany) were incubated with PDE 1 from bovine heart (Sigma-Aldrich) and monitored by HPLC as described above.
(§3) Rp-2′-O-Me-cAMPB (example 7) and Sp-2′-O-Me-cAMPS (Biolog, Bremen/Germany).

PDE IV (A4B) = biological target: T1, PDE IV (A4B) (Homo sapiens, UniProt P27815); assay: Stability against PDE IV, HPLC; type: in vitro ADME; details: several days
T1 construct: Houslay lab, Glasgow/Scotland (obtained from another laboratory)
Procedure: Next, stability of the disclosed boranophosphates against PDE IV (A4B, Houslay lab, Glasgow/Scotland) was tested in similar experiments as described above.

[3] = biological target: protein kinase A type I alpha holoenzyme (Homo sapiens, UniProt P10644); assay: Standard photometric (Cook) assay with protein kinase A type I alpha holoenzyme; type: biochemical; details: holoenzyme RIα
Text: In a first experiment, the biological activity of the Rp- and Sp-isomer of 8-bromoadenosine-3′,5′-cyclic boranophosphate (examples 1 and 2) has been tested with the holoenzyme of protein kinase A type I alpha (FIGS. 3 and 4) using a standard photometric assay (Cook, P. F.; Neville, M. E., Jr.; Vrana, K. E.; Hartl, F. T. and Roskoski, R., Jr., Biochemistry 21, 5794-5799 (1982)).
As a control, two boranophosphate analogues with a 2′-O-methyl modification (Rp-2′-O-Me-cAMPB and Sp-2′-O-Me-cAMPB, examples 7 & 8) have been tested by the same type of assay with protein kinase A type I alpha as well.
FIG. 5 depicts the activity overview of four different cyclic boranophosphate analogues with protein kinase A type I alpha holoenzyme. 9108: Sp-2′-O-Me-cAMPB; 9109: Rp-2′-O-Me-cAMPB; 9110: Sp-8-Br-cAMPB; 9111: Rp-8-Br-cAMPB; controls: B 001: Rp-8-Br-cAMPS. Control: cAMP. “Cook Assay” with Holoenzyme RIα.

PDE 1 = assay: Resistance towards phosphodiesterase: incubation with PDE 1 from bovine heart, HPLC; details: bovine, pH 7.2
Procedure: as §1, §2, §3

[4] = biological target: protein kinase A type II alpha holoenzyme (Homo sapiens, UniProt P13861); assay: Photometric (Cook) assay with protein kinase A type II alpha holoenzyme; type: biochemical; details: activation of protein kinase A type II; data not shown
Text: In another similar experiment the properties of Rp- and Sp-8-Br-cAMPB towards protein kinase A type II a were investigated in the photometric assay (Cook, P. F., Neville, M. E., Jr., Vrana, K. E., Hartl, F. T. and Roskoski, R., Jr., Biochemistry 21, 5794-5799 (1982))

[5] = Degradation Example 4: oxidation with hydrogen peroxide, monitored by HPLC; type: physicochemical; details: after 3 hours at RT
Procedure: As a control, the corresponding cyclic nucleotide with phosphorothioate modification (Rp-8-BT-2′-O-Me-cAMPS, Biolog) had been added. The oxidation process was monitored by reversed phase HPLC (RP-18, 30 Vol.-% acetonitrile, 20 mM triethylammonium formate buffer, pH 8.3, 2 ml/min, UV 282 nm). The areas of both peaks were recorded, integrated and compared (Tab. 2).

[6] = Degradation Example 8: oxidation with hydrogen peroxide, monitored by HPLC; type: physicochemical; details: after 1 hour at RT
Procedure: Finally, with the Sp-isomer of 8-bromoguanosine-3′,5′-cyclic boranophosphate (Sp-8-Br-cGMPB, example 6) also the oxidative stability of a cyclic boranophosphate with a modified guanine nucleobase was investigated and again compared to the corresponding phosphorothioate Rp-8-bromoguanosine-3′,5′-cyclic phosphorothioate (Rp-8-Br-cGMPS, Biolog).
Both compounds were treated together with two 10 μl doses of 30% aqueous hydrogen peroxide (Merck). During more than four hours, oxidative degradation was monitored by HPLC (RP-18, 15 Vol.-% acetonitrile, 20 mM triethylammonium formate buffer, pH 6.5, 1.5 ml/min., UV 263 nm) and corresponding peak areas were recorded and compared (Tab. 7).

[7] = biological target: T2, protein kinase G type I α, activated by cGMP (Homo sapiens, UniProt Q13976); assay: Suppression of cGMP-stimulated protein kinase G type I alpha activity; type: biochemical; details: 10 nM, 100 nM and 1 μM; cGMP 200 nM
T2 sequence (Q13976 1-671): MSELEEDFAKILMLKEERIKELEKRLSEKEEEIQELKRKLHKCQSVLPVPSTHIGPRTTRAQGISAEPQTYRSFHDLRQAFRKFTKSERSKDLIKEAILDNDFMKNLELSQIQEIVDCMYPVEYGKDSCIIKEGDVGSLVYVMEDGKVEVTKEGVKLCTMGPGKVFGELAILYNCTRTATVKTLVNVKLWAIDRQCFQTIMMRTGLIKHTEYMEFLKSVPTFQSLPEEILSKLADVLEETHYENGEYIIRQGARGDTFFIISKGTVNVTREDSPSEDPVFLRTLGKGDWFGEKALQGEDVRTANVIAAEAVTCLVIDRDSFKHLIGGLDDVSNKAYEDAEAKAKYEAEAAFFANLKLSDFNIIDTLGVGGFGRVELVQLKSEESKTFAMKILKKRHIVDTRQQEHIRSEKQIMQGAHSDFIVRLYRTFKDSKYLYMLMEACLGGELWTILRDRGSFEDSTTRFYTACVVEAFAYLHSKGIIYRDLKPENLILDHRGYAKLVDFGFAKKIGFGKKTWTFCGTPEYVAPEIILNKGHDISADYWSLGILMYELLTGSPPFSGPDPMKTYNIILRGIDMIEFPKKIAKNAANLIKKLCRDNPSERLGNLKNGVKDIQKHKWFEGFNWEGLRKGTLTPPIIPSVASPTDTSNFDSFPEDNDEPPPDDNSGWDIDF

T1 sequence (P27815 whole entry): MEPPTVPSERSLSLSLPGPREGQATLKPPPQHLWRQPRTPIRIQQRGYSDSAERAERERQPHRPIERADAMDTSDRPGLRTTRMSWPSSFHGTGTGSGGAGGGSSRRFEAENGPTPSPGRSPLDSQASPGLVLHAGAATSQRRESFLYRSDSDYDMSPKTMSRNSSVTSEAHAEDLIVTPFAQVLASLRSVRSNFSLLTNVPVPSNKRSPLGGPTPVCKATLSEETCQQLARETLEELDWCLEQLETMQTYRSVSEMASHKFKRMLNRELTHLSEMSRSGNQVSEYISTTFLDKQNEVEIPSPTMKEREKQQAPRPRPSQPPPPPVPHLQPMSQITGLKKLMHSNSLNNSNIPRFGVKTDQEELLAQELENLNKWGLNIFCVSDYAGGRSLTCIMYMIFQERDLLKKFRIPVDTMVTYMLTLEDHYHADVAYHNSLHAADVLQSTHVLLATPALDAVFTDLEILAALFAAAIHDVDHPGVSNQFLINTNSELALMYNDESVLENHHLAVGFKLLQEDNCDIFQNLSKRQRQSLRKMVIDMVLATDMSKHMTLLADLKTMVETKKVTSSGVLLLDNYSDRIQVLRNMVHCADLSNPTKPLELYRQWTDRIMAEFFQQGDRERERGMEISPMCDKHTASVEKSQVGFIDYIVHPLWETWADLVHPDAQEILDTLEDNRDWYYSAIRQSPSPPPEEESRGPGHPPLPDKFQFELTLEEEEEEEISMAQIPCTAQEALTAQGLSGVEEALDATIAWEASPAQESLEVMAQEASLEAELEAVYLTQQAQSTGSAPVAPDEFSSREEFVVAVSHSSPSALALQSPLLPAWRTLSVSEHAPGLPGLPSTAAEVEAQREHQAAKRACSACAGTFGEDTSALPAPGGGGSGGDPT
Sequence of protein kinase A type I alpha holoenzyme (P10644 whole entry): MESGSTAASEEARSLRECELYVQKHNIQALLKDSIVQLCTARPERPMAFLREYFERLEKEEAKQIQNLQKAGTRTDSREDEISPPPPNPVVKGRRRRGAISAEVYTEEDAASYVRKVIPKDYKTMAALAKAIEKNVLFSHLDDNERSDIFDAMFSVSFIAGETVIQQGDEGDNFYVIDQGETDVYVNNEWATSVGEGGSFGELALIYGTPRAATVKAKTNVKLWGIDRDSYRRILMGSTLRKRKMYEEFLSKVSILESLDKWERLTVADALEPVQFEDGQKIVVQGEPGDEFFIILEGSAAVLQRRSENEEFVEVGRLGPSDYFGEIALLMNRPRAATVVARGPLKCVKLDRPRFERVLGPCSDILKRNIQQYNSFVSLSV
Sequence of protein kinase A type II alpha holoenzyme (P13861 whole entry): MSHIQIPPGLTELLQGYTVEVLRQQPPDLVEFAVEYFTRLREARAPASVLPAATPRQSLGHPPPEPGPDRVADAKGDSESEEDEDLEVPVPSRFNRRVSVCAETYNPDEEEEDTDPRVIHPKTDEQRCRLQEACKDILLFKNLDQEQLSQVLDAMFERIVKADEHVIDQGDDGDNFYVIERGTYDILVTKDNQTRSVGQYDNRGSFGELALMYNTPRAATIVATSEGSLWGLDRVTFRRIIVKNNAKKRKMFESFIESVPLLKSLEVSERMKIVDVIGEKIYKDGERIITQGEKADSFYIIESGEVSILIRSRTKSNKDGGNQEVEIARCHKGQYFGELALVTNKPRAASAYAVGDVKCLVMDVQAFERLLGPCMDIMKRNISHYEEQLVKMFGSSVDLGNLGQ

peak area, % of the original area [1]: 90%
Compound: 2-Chloroadenosine-3′,5′-cyclic boranophosphate, Rp-isomer [Rp-2-Cl-cAMPB]

Compound: Nc1nc(Cl)nc2c1ncn2[C@@H]1O[C@@H]2COP(O)(=S)OC2[C@@H]1O (single isomer, unassigned) [Rp-2-Cl-cAMPS, 2-chloroadenosine-3′,5′-cyclic phosphorothioate, Rp-isomer, reference compound]
degraded [1]: 22%

degradation by PDE [2]: stable over the whole assay period
degradation by PDE (PDE 1 from bovine heart): stable over the whole assay period
stability against PDE IV (PDE IV (A4B)): completely stable
Compound: B[PH]1(O)OC[C@H]2O[C@@H](n3cnc4c(N)ncnc43)C(OC)[C@@H]2O1 (stereo partly drawn) [Rp-2′-O-Me-cAMPB, 2′-O-Methyladenosine-3′,5′-cyclic boranophosphate, Rp-isomer]
effect on protein kinase A type I alpha holoenzyme [3]: neither Rp- nor Sp-2′-O-Me-cAMPB did modulate the kinase in any way

Compound: Nc1ncnc2c1nc(Br)n2C1OC2COP(O)(=S)OC2C1O (stereo not drawn) [Sp-8-Br-cAMPS, Sp-8-bromoadenosine-3′,5′-cyclic phosphorothioate, reference compound]
half-life (PDE 1): ~50 h
EC50 [4]: 710 nM

Compound: 8-Benzylthio-2′-O-methyladenosine-3′,5′-cyclic boranophosphate, SP-isomer [Sp-8-BT-2′-O-Me-cAMPB]
peak area, % of the original area [5]: 73%

peak area, % of the original area [6]: 65%
antagonism of protein kinase G [7]: showed antagonistic potential
Compound: B[PH]1(O)OC[C@H]2O[C@@H](n3c(Br)nc4c(=O)[nH]c(N)nc43)C(O)[C@@H]2O1 (stereo partly drawn) [Sp-8-Br-cGMPB, 8-Bromoguanosine-3′,5′-cyclic boranophosphate, Sp-isomer]

Compound: Nc1nc2c(nc(Br)n2[C@@H]2O[C@@H]3COP(O)(=S)O[C@H]3[C@H]2O)c(=O)[nH]1 (stereo partly drawn) [Rp-8-Br-cGMPS, Rp-8-bromoguanosine-3′,5′-cyclic phosphorothioate, reference compound]
degraded [6]: 15%

Source: US9487553B2, “Boranophosphate analogues of cyclic nucleotides” (BIOLOG LIFE SCIENCE INSTITUTE FORSCHUNGSLABOR UND …, priority 2011, dated 2016)
